Results from patent US10919891B2, “Heterocyclic compound” (TAKEDA PHARMACEUTICAL COMPANY LIMITED, priority 2017, dated 2021).

How the values were obtained:
[1] = test system: monocrotaline (MCT)-induced pulmonary hypertension rats; conditions: cited from earlier work
[2] = test system: hypoxia-induced pulmonary hypertension (HPH) mice; conditions: cited from earlier work
CYP3A = test: CYP Induction (CYP3A activity in cryopreserved hepatocytes, P450-Glo CYP3A4 assay); type: in vitro ADME; conditions: % of positive control (inducibility by 10 μmol/L rifampicin = 100%); hepatocytes treated 3 days
Protocol: Cryopreserved hepatocytes were thawed in a culture medium (In VitroGRO™ CP Medium, Celsis In Vitro Technologies, U.S.A.), and the resultant was added to BioCoat™ Matrigel® Matrix Thin-Layer 96 well (Becton, Dickinson and Company, U.S.A.) at a concentration of 40,000 cells/well. After culturing for 24 hours, the culture medium was removed, and replaced with an incubation medium (In VitroGRO™, HI Medium with Torpedo Antibiotic Mix, Celsis In Vitro Technologies, U.S.A.). Cells were cultured for an additional 3 days. The medium was removed on day 4, and the remained cells were treated in the induction medium containing a test compound for 3 days in the presence or absence of 10 μmol/L rifampicin. The induction medium was replaced every day. The test compound addition wells in the presence of 10 μmol/L rifampicin were used to evaluate the inhibitory effect of the test compound on the inducibility of the CYP3A activity by rifampicin. The CYP3A activity was evaluated by measuring luciferin generating amount after the addition of 2 μmol/L luciferin-IPA using IPA P450-Glo™ CYP3A4 assay systems (Promega Corporation, U.S.A.). All cultures were carried out under a humidified environment at 37° C., 5% CO2. The inducibility by rifampicin was defines as 100%, and the inducibility of the test compound (% of positive control) was calculated from the following equation: [(luciferin fluorescence intensity in the absence of rifampicin and the presence of test compound)−(luciferin fluorescence intensity in the absence of rifampicin and test compound)/(luciferin fluorescence intensity in the presence of rifampicin and the absence of test compound)−(Luciferin fluorescence intensity in the absence of rifampicin and test compound)]×100.

CYP3A4 = target: T1, CYP3A4 (Homo sapiens, UniProt P08684); test: CYP3A4 TDI (human liver microsomes, testosterone 6β-hydroxylation); type: in vitro ADME; conditions: test compound 30 μM, 60 min vs 0 min preincubation with NADPH, 37° C.
T1 construct: Human liver microsomes purchased from XenoTech, LLC (Lenexa, Kans.) was used; tissue XenoTech, LLC; host or cells: human liver microsomes
T1 sequence (P08684 whole entry): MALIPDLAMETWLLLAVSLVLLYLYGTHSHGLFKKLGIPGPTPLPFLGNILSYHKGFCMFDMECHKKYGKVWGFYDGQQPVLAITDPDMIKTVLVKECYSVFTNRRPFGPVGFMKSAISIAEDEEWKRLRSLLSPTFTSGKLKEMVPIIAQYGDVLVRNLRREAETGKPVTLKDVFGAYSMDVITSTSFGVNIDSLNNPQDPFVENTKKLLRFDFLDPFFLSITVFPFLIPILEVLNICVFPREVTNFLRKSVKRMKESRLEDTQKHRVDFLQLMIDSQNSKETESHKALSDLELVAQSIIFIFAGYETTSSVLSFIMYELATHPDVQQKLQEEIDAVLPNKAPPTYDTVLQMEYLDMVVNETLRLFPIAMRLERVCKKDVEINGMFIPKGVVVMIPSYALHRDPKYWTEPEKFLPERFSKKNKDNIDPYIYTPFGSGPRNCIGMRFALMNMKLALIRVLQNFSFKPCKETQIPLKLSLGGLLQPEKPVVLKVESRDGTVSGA
Protocol: Human liver microsomes purchased from XenoTech, LLC (Lenexa, Kans.) was used. Test compounds were dissolved in acetonitrile, acetonitrile/methanol (1:1, v/v) or DMSO/acetonitrile (1:4, v/v). To a human liver microsomes solution adjusted with phosphate buffer (pH 7.4), the test compound solution was added to obtain a human liver microsomes reaction solution having the test compound concentration of 30 μM. To the human liver microsome reaction solution, NADPH production system was added, and the mixture was preincubated at 37° C. for 0 minutes or 60 minutes. After the preincubation, probe substrate testosterone was added, and testosterone metabolite 6β-hydroxytestosterone was analyzed by LC/MS/MS to evaluate CYP3A4 enzymatic activity.
The enzyme activity (% of control) at each preincubation point was calculated from the following equation: % of control=[(activity of test compound addition group)/(activity of test compound non-addition group)]×100.
The remaining activity (% remaining) after 60 minutes of preincubation was calculated from the following equation: Remaining activity (%)=[activity after 60 minutes (% of control60 min)]/[activity after 0 minutes (% of control0 min)]×100.

human CaSR = target: T2, human CaSR (Homo sapiens, UniProt P41180); test: Human CaSR Antagonist Activity (CHO cells, NFAT-Luciferase reporter); type: cell-based; conditions: CHO, 2 h, 3.3 μm test compound; CaCl2 final 1.3 mM; 100% = reference carboxamide at 10 μM; read-out: Inhibition rate (%) at 3.3 μm
T2 construct: expressed in transfected cells; host or cells: CHO cells
T2 sequence (P41180 20-1078): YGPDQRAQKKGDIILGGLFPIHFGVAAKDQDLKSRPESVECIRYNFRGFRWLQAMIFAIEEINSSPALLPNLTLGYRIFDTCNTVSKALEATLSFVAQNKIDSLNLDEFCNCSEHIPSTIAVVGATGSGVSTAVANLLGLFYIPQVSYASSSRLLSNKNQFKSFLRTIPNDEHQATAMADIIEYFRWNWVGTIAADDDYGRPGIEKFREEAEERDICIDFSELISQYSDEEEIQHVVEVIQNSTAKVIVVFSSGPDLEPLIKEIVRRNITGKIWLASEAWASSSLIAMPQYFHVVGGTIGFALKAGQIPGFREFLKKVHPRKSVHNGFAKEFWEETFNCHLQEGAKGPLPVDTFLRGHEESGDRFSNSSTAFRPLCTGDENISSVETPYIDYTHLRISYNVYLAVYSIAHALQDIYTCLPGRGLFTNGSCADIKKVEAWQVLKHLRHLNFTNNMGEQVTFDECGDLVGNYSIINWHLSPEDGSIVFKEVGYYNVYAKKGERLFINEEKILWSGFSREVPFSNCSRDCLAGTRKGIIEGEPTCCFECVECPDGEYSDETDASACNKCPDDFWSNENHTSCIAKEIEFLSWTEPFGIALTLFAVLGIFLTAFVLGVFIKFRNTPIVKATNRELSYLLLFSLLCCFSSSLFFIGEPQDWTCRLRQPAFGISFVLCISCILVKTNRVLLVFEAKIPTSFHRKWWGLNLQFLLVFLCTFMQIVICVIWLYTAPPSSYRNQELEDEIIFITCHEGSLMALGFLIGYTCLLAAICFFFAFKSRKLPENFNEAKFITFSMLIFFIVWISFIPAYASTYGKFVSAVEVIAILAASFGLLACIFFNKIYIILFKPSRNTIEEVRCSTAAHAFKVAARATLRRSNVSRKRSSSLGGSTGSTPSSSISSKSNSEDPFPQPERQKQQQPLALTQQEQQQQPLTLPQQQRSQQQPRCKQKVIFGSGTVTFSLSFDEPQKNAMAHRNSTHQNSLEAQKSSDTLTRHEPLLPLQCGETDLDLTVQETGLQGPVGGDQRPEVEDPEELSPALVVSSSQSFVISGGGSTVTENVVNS
Protocol: CaSR antagonist activity measurement was performed using Bright-Glo Luciferase assay system (Promega Corporation). CHO cells in which human CaSR and NFAT-Luciferase reporter gene were forcibly expressed were suspended in MEM alpha (Wako Pure Chemical Industries, Ltd.) containing 10% dialyzed serum (HyClone). The cells in suspension was seeded in 384-well white plate (Corning) at 10,000/20 μL/well, and cultured in an incubator of 37° C., 5% CO2 for one day. A diluent of Test compound was prepared with assay buffer (MEM alpha containing 10 mM HEPES (Life Technologies) and 10% dialysis serum). The diluent was added to the plate at 5 μL/well and allowed to stand at 37° C. for 10 minutes. Further, a diluent of 7.8 mM CaCl2 prepared with assay buffer (final concentration 1.3 mM) was added at 5 μl/well and allowed to stand in an incubator of 37° C., 5% CO2 for 2 hours. Bright-Glo reagents (Promega Corporation) were added at 10 μL/well, and the obtained mixture was stirred for 5 minutes, and then luminescence intensity was measured using Multi-label reader Envision (PerkinElmer, Inc.). The activity (%) of the test compound was calculated with the definitions in which the luminescence intensity when DMSO is added in place of the test compound is defined as 0% inhibition; and the luminescence intensity when (5R)—N-(1-ethyl-1-(4-ethylphenyl)propyl)-2,7,7-trimethyl-5-phenyl-4,5,6,7-tetrahydropyrazolo[1,5-a]Pyrimidine-3-carboxamide at final concentration of 10 μM is added is defined as 100% inhibition.

[3] = test system: aortic banding (TAC) models; conditions: cited from earlier work
[4] = dosing after cardiac loading; cited from earlier work

| SMILES | cardiac hypertrophy, elevated right ventricular systolic pressure, fibrosis of cardiac muscle tissue, pulmonary vascular remodeling [1] | cardiac hypertrophy, elevated right ventricular systolic pressure, fibrosis of cardiac muscle tissue, pulmonary vascular remodeling [2] | Inducibility (%) (CYP3A) | Remaining Activity (%) (CYP3A4) | inhibition at 3.3 µM (human CaSR) | cardiac hypertrophy [3] | cardiac hypofunction [4] |
| --- | --- | --- | --- | --- | --- | --- | --- |
| CC(C)(Cc1ccc2ccccc2c1)NC[C@@H](O)COc1cccc(Cl)c1C#N [NPS-2143] | suppressed | suppressed | – | – | – | – | – |
| CC1(C)C[C@H](c2ccccc2)Nc2c(C(=O)N3CC4CC4(c4ccc(C(F)(F)F)cc4)C3)cnn21 (single isomer, unassigned) [Example 7] | – | – | 2.3% | 78.1% | 97% | – | – |
| CC1(C)C[C@H](c2ccccc2)Nc2c(C(=O)N3CC4CC4(c4cc(Cl)cc(C(F)(F)F)c4)C3)cnn21 (single isomer, unassigned) [Example 9] | – | – | 9.0% | 86.4% | 96% | – | – |
| CC1(C)C[C@H](c2ccccc2)Nc2c(C(=O)N3CC4CC4(c4cc(Cl)cc(Cl)c4)C3)cnn21 (single isomer, unassigned) [Example 4] | – | – | 10.7% | 87.0% | 100% | – | – |
| CC1(C)C[C@H](c2ccccc2)Nc2c(C(=O)N3CC4CC4(c4ccc(Cl)c(C(F)(F)F)c4)C3)cnn21 (single isomer, unassigned) [Example 13] | – | – | 16.7% | 81.8% | 101% | – | – |
| C[C@@H](N[C@H]1CCCC[C@@H]1NC(=O)c1ccc(Cl)cc1)c1cccc2ccccc12 [Calhex231] | – | – | – | – | – | improves cardiac hypertrophy | fails to improve cardiac hypofunction |
| CC1(C)C[C@H](c2ccccc2)Nc2c(C(=O)N3CC4CC4(c4ccc(C(F)(F)F)c(Cl)c4)C3)cnn21 (single isomer, unassigned) [Example 11] | – | – | 1.2% | 97.7% | 99% | – | – |
